Where two headings read alike, the source gives them in different places. Each block holds one compound with its values, some of them ahead of it.
Columns and labels:
[1] = Stability of working solutions; format: physicochemical
Description: Stability of the analyte was assessed using five measurements of QC samples at low and high concentrations after exposure to different conditions of storage and processing temperature. Baracitinib stability was evaluated after three freeze-thaw cycles, storage at room temperature (23–25 °C) for 6 h (short term stability), and subsequent storage for eight weeks at −80 °C (long term stability). […]

P-glycoprotein (Pgp) = tested on: P-glycoprotein (Pgp); parameters: method as in PMID 30907116; conditions: cited from earlier work
CYP3A4 enzyme = tested on: CYP3A4 enzyme; parameters: method as in PMID 30907116; conditions: cited from earlier work
[2] = cited from earlier work
[3] = tested on: organic anionic transporter (OAT) 3; parameters: method as in PMID 30907116; conditions: cited from earlier work
[4] = parameters: method as in earlier work; conditions: pre-clinical animal studies, at higher dosages; cited from earlier work
[5] = cited from earlier work; remark: listed apart in the source
[6] = tested on: breast cancer resistance protein (BCRP); parameters: method as in PMID 30907116; conditions: cited from earlier work
[7] = tested on: multidrug and toxic extrusion protein (MATE) 2-K; parameters: method as in PMID 30907116; conditions: cited from earlier work
[8] = Pharmacokinetic study in rats after oral administration of baricitinib suspension; format: in vivo, Sprague Dawely rats
Description: Sample analysis was performed on an Acquity TQD UPLC-MS/MS system (Waters Co., Milford, MA, USA). The triple quadrupole mass spectrometer was operated in the MRM mode, and detection was carried out using electrospray ionization (ESI) in the positive ion mode. In addition, the mass spectrometry parameters including parent to daughter ion transition, collision energy, cone voltage, and dwell time were optimized to determine the analyte and IS (Table 5). The collision gas (argon) flow rate was kept at 0.1 mL/min and the desolvation gas (nitrogen) flow rate was optimized to 600 L/h. […] The flow rate was 0.2 mL/min.
Baricitinib and IS were extracted from rat plasma using liquid–liquid extraction. 20 µL of irbesartan working solution (20 µg/mL) was added to 100 µL plasma samples. After vortex-mixing for 20 s, 1 mL of n-hexane:dichlromethane mixture (1:1) was added. Samples were then mixed for 1 min and centrifuged for 5 min at 5600× g. The supernatant (0.8 mL) was transferred to a 5-mL tube and evaporated to dryness at 40 °C. Residues were reconstituted in 100 µL of the mobile phase and 5 µL was injected into the LC-MS/MS system.
Sprague Dawely rats weighing 200–230 g were obtained from the animal house at the National Organization for Drug Control and Research, Giza, Egypt. Rats were fed standard sufficient food and water and experiments were performed under the Guide for Care and Use of laboratory animals. experimental protocols were approved by the ethics committee of the Faculty of Pharmacy at Al-Azhar University, Cairo, Egypt (no. 206).
Baricitinib was used to create a suspension using 1% carboxymethyl cellulose. Following overnight fasting, the drug was administered in a dose of 2 mg/10 mL/kg. Blood samples (approximately 0.25 mL) were then collected from the retro-orbital plexus into heparinized tubes at 0.0, 0.25, 0.5, 0.75, 1.0, 1.25, 2.0, 3.0, 5.0, 7.0, 9.0, and 11.0 h post-dosing. Plasma samples were obtained by centrifuging the blood at 4250× g for 5 min and stored frozen at −80 °C until analysis. The pharmacokinetic parameters Cmax, tmax, AUC, t½, and Kel were calculated using WinNonlin software.

[9] = Stability of quality control samples in rat plasma; format: in vitro ADME; conditions: n = 6
Description: […] Baracitinib stability was evaluated after three freeze-thaw cycles, storage at room temperature (23–25 °C) for 6 h (short term stability), and subsequent storage for eight weeks at −80 °C (long term stability). Moreover, the stability of stock and working solutions of baricitinib and the IS at room temperature for 6 h (23–25 °C) and at refrigerator (2–8 °C) for 12 days was tested.

[10] = parameters: method as in PMID 24965573; conditions: cited from earlier work
[11] = refrigerated temperature (2–8 °C) for 10 days
[12] = room temperature (23–25 °C) for 6 h
[13] = co-administration of high-fat meal
[14] = with rifampicin (potent CYP3A inducer)
[15] = Sprague-Dawley, rat, plasma, male rats, oral 2 mg/kg suspension, fasted, mean ± SD
[16] = rats, literature value higher than present work
[17] = Auto-sampler, nominal 40.0 ng/mL
[18] = Auto-sampler, nominal 400.0 ng/mL
[19] = Bench top (6 h), nominal 400.0 ng/mL
[20] = Long term (at −80 °C for 8 weeks), nominal 40.0 ng/mL
[21] = Long term (at −80 °C for 8 weeks), nominal 400.0 ng/mL
[22] = Thaw/freeze (3 cycles), nominal 40.0 ng/mL
[23] = Thaw/freeze (3 cycles), nominal 400.0 ng/mL

Stability of working solution [1, 11]: stable | Stability of working solution [1, 12]: stable
SMILES: CCCCC1=NC2(CCCC2)C(=O)N1Cc1ccc(-c2ccccc2-c2nnn[nH]2)cc1 [IS, irbesartan]

Stability of working solution [1, 11]: stable | Stability of working solution [1, 12]: stable | AUC(0-inf) [8, 15]: 223 ± 107 ng·h/mL | Cmax [8, 15]: 129 ± 91.4 ng/mL | MRT [8, 15]: 3.3 ± 0.78 h | half-life [8, 15]: 2.24 ± 0.43 h | AUC(0-t) ([8]; Sprague-Dawley, rat, plasma, male rats, oral 2 mg/kg suspension, fasted, mean ± SD, read-out: AUC0-11): 205 ± 101 ng·h/mL | Tmax ([8]; Sprague-Dawley, rat, plasma, male rats, oral 2 mg/kg suspension, fasted, median): 0.5 h | Difference in AUC, value reported by Veeraraghavan et al. versus present work [8, 16]: 4.3 fold | Difference in Cmax, value reported by Veeraraghavan et al. versus present work [8, 16]: 5 fold | Stability, Accuracy (%) [9, 17]: 89.0% | Stability, measured conc. Mean ± SD [9, 17]: 35.6 ± 2.69 ng/mL | Stability, Accuracy (%) [9, 18]: 90.1% | Stability, measured conc. Mean ± SD [9, 18]: 360.36 ± 11.52 ng/mL | Stability, measured conc. Mean ± SD ([9]; Bench top (6 h), nominal 40.0 ng/mL): 34.61 ± 3.03 ng/mL | Stability, Accuracy (%) [9, 19]: 85.8% | Stability, measured conc. Mean ± SD [9, 19]: 343.27 ± 44.76 ng/mL | Stability, Accuracy (%) [9, 20]: 86.6% | Stability, measured conc. Mean ± SD [9, 20]: 34.63 ± 4.63 ng/mL | Stability, Accuracy (%) [9, 21]: 87.64% | Stability, measured conc. Mean ± SD [9, 21]: 350.56 ± 28.53 ng/mL | Stability, Accuracy (%) [9, 22]: 85.1% | Stability, measured conc. Mean ± SD [9, 22]: 34.09 ± 3.99 ng/mL | Stability, Accuracy (%) [9, 23]: 86.4% | Stability, measured conc. Mean ± SD [9, 23]: 345.73 ± 39.84 ng/mL
SMILES: CCS(=O)(=O)N1CC(CC#N)(n2cc(-c3ncnc4[nH]ccc34)cn2)C1 [baricitinib, Baricitinib]
Substrate of P-glycoprotein (Pgp) (P-glycoprotein (Pgp)): substrate | Metabolism by CYP3A4 (CYP3A4 enzyme): primarily metabolized | Delay in tmax [2, 13]: 3 h | Effect on AUC [2, 13]: no effect | Reduction of Cmax [2, 13]: about 29% | Change of clearance ([2]; with an inhibitor of the transporter OAT3): reduced | Effect on baricitinib pharmacokinetics ([2]; with fluconazole (CYP2C19/CYP2C9/CYP3A inhibitor)): did not significantly affect | Effect on baricitinib pharmacokinetics ([2]; with ketoconazole (CYP3A inhibitor)): did not significantly affect | Change of Cmax (rate of absorption) ([2]; with probenecid): not significantly increased | Potentiation of AUC0-inf ([2]; with probenecid): twofold | Renal clearance decreased to ([2]; with probenecid): 69% | Change of AUC [2, 14]: decreased | Change of Cmax [2, 14]: without affecting | Substrate of OAT3 [3]: substrate | Embryotoxicity and teratogenicity [4]: embryotoxicity, teratogenicity, and adverse effect on bone development in utero | LDL-C and HDL-C levels [5]: stable dose-response increase | Infection risk ([5]; particularly for herpes zoster): elevates infection risk | Safety and tolerability ([5]; patients with moderate to severe RA treated for 24 weeks): safe and well tolerated | Substrate of BCRP [6]: substrate | Substrate of MATE2-K [7]: substrate | Time to peak plasma concentrations ([10]; after oral administration): approximately 1 h | Oral bioavailability [10]: 79% | Bound to plasma proteins ([10]; mainly albumin): about 50%

Source: article PMC7180984, “A Hydrophilic Interaction Liquid Chromatography–Tandem Mass Spectrometry Quantitative Method for Determination of Baricitinib in Plasma, and Its Application in a Pharmacokinetic Study in Rats” (Molecules, 2020)
